The values below come from PubChem BioAssay (NCI).

Some test systems named below: CAKI-1 renal; HCC-2998 colon; HCT-15 colon; HOP-62 NSCLC; HT29 colon; MALME-3M melanoma; MCF7 breast; MOLT-4 leukemia; NCI/ADR-RES ovarian; OVCAR-5 ovarian; OVCAR-8 ovarian; RPMI-8226 leukemia; SF-295 CNS; SN12C renal; SNB-19 CNS; U251 CNS; UACC-62 melanoma; UO-31 renal; MDA-MB-435; TK-10 renal.
Holding throughout (assay): DTP human tumour cell line panel, 48 h

Each structure is given as a SMILES string.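 A five-concentration, 48-hour dose response in 96-well plates underlies each endpoint, interpolated linearly between surrounding concentrations. TGI: concentration producing complete growth inhibition.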

Usually TGI stands for the concentration at which net growth stops. Read a low TGI as more potent growth arrest. Turning to `CCC1=CC2CN3CCc4c([nH]c5ccccc45)C(C(=O)OC)(C2)C13` (configuration not stated), the TGI is 46.5 µM in the test on CAKI-1 renal; above 92.6 µM in the test with HCC-2998 colon; 90.8 µM in the test with HCT-15 colon; 86.1 µM in the test with HOP-62 NSCLC; 60.4 µM with HT29 colon; 92.8 µM with MALME-3M melanoma. Further, the TGI turned out to be 95.4 µM in the test on MCF7 breast; 181 µM with MOLT-4 leukemia; 110 µM in the test on NCI/ADR-RES ovarian; 24.3 µM in the test on OVCAR-5 ovarian; 14.7 µM in the test on OVCAR-8 ovarian; 137 µM in the test with RPMI-8226 leukemia. Also, the TGI in the test on SF-295 CNS came to 90.1 µM; with SN12C renal, 89.3 µM; in the test with SNB-19 CNS it was 68.4 µM; with U251 CNS, 117 µM; in the test on UACC-62 melanoma, 64 µM; in the test with UO-31 renal, 71.4 µM.

With `CC1(C23CC4CC(CC(C4)C2)C3)n2c(=O)n(-c3ccccc3)c(=O)n2C1(C)C12CC3CC(CC(C3)C1)C2` (configuration not stated), the concentration for total growth inhibition (TGI) in the test on CAKI-1 renal, in the test with HCT-15 colon, with HOP-62 NSCLC, in the test on HT29 colon, in the test with MCF7 breast and in the test on MDA-MB-435 was above 100 µM each time. Further, the TGI with MOLT-4 leukemia, in the test on NCI/ADR-RES ovarian, in the test with OVCAR-5 ovarian, in the test with OVCAR-8 ovarian, in the test with RPMI-8226 leukemia and in the test on SF-295 CNS was above 100 µM throughout. For the same compound, the TGI with SN12C renal, in the test on SNB-19 CNS, in the test on TK-10 renal, in the test with U251 CNS, in the test on UACC-62 melanoma and in the test on UO-31 renal was above 100 µM throughout.

`CCOC(=O)c1csc(NC(=O)CCN2CCCCC2)n1`: the TGI in the test with CAKI-1 renal, in the test with HCC-2998 colon, with HCT-15 colon, with HOP-62 NSCLC, in the test on HT29 colon and in the test with MALME-3M melanoma was above 100 µM throughout. Besides, the TGI in the test with MCF7 breast, in the test on MDA-MB-435, in the test with MOLT-4 leukemia, in the test on NCI/ADR-RES ovarian, with OVCAR-5 ovarian and in the test with OVCAR-8 ovarian was above 100 µM each time. Besides, the TGI in the test on RPMI-8226 leukemia, in the test with SF-295 CNS, with SNB-19 CNS, in the test on TK-10 renal, with U251 CNS and in the test with UACC-62 melanoma was above 100 µM throughout. In the test with UO-31 renal, this compound displayed a TGI above 100 µM.

For the compound `CN1C2CC(=O)CC1[C@H](O)[C@@H]2O`, the total growth inhibition concentration (TGI) in the test with HCC-2998 colon, with HCT-15 colon, in the test with HOP-62 NSCLC, in the test on HT29 colon, with MALME-3M melanoma and with MCF7 breast was above 100 µM throughout. For the same compound, the TGI with MDA-MB-435, with MOLT-4 leukemia, in the test on NCI/ADR-RES ovarian, in the test with OVCAR-8 ovarian, in the test with RPMI-8226 leukemia and in the test with SF-295 CNS was above 100 µM in each case. The TGI with SN12C renal, in the test with SNB-19 CNS, in the test on TK-10 renal, with U251 CNS and in the test on UO-31 renal was above 100 µM each time.
